Results as given in US20250034135A1, “ANTI-APOPTOTIC PROTEIN BCL-2 INHIBITOR, PHARMACEUTICAL COMPOSITION AND USES THEREOF” (HANGZHOU HEALZEN THERAPEUTICS CO., LTD., priority 2021, published 2025).

Legend:
BCL-XL = BCL-XL (Homo sapiens (Human), UniProt Q07817); assay: BCL-XL enzyme molecular level activity test (HTRF, binding to BIM peptide); settings: binding of BCL-XL to BIM peptide, values in nM, read-out: BCL-XL inhibitory activity (IC50)
Procedure: In a white shallow 384-well plate, a total reaction volume was 10 μL. Specifically, it included 2 μL of the compound to be tested (2% DMSO), […] His-tagged recombinant protein, and 4 μL Biotin-tagged BIM protein peptide. After 1 hour of reaction, 5 μL of each Anti-His and streptavidin-tagged XL665 antibody diluents diluted with a detection buffer were added. After incubating at room temperature for 4 hours, the values were read using the Envision multifunctional microplate reader to detect the effect of the compound to be tested on the binding ability of BCL-XL to BIM protein peptides. The Envision parameter settings were exciting light at 320 nm, and emitting light at 615 nm and 665 nm. The binding ability of anti-apoptotic proteins to Bim protein peptides was indirectly reflected by the signal ratio of 665 nm and 615 nm. In the reaction, background wells without BCL2 and active wells for full binding of recombinant proteins without compounds and Bim protein peptides were set up.

BCL2 = BCL2 (Homo sapiens (Human), UniProt P10415); assay: Molecular level activity test of anti-apoptotic protein BCL2 (HTRF, binding to Bim peptide); settings: HTRF, binding of BCL2 to Bim peptide; read-out: BCL2 nM (inhibitory activity, IC50)
In short: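 Disruption of the BCL2/Bim peptide interaction is detected by homogeneous time-resolved fluorescence, using anti-His and streptavidin-XL665 reagents against His-tagged protein and biotin-tagged peptide. Compound exposure lasts 1 h before reagent addition; plates then sit 4 h at room temperature.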

BCL-XL, sequence (Q07817 whole entry): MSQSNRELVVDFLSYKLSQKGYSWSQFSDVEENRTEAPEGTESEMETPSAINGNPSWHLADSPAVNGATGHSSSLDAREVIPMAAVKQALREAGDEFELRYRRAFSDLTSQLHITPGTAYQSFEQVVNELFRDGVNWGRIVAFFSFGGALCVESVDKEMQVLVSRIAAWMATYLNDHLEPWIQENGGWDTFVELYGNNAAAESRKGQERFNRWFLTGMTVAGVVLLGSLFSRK
BCL2, sequence (P10415 whole entry): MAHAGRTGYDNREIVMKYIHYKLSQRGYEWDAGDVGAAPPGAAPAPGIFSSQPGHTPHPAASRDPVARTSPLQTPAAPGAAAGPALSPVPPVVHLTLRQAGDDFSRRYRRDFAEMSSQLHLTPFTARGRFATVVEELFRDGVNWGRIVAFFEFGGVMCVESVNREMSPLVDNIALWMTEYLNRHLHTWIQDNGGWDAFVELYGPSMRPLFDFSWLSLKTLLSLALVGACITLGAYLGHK

## COc1ccc(CN2CCN(C3CC4(CCN(c5cc(Oc6cnc7[nH]ccc7c6)c(C(=O)NS(=O)(=O)c6ccc(NCC7(F)CCOCC7)c([N+](=O)[O-])c6)cc5F)CC4)C3)[C@H](c3ccccc3C(C)C)C2)c2c1OCO2 [compound 205]
BCL-XL
  IC50: > 500 nM
BCL2
  IC50: < 10 nM

## CC(C)c1ccccc1[C@@H]1CN(Cc2ccc(C(F)(F)F)cc2)CCN1C1CC2(CCN(c3cc(Oc4cnc5[nH]ccc5c4)c(C(=O)NS(=O)(=O)c4ccc(NCC5(F)CCOCC5)c([N+](=O)[O-])c4)cc3F)CC2)C1 [compound 188, (R)-2-((1H-pyrrolo[2,3-b]pyrid-5-yl)oxy)-5-fluoro-N-((4-(((4-fluorotetrahydro-2H-pyran-4-yl)methyl)amino)-3-nitrophenyl)sulfonyl)-4-(2-(2-(2-isopropylphenyl)-4-(4-(trifluoromethyl)benzyl)piperazin-1-yl)-7-azaspiro[3.5]non-7-yl)benzamide]
BCL-XL
  IC50: > 500 nM
BCL2
  IC50: < 10 nM

## CC(C)c1ccc(CN2CCN(C3CC4(CCN(c5cc(Oc6cnc7[nH]ccc7c6)c(C(=O)NS(=O)(=O)c6ccc(NCC7(F)CCOCC7)c([N+](=O)[O-])c6)cc5F)CC4)C3)[C@H](c3ccccc3C(C)C)C2)cc1 [compound 193, (R)-2-((1H-pyrrolo[2,3-b]pyrid-5-yl)oxy)-5-fluoro-N-((4-(((4-fluorotetrahydro-2H-pyran-4-yl)methyl)amino)-3-nitrophenyl)sulfonyl)-4-(2-(4-(4-isopropylbenzyl)-2-(2-isopropylphenyl)piperazin-1-yl)-7-azaspiro[3.5]non-7-yl)benzamide]
BCL-XL
  IC50: > 500 nM
BCL2
  IC50: < 10 nM

## CC(C)c1ccccc1[C@@H]1CN(Cc2c(F)cccc2F)CCN1C1CC2(CCN(c3cc(Oc4cnc5[nH]ccc5c4)c(C(=O)NS(=O)(=O)c4ccc(NC[C@H]5CC[C@](C)(O)CC5)c([N+](=O)[O-])c4)cc3F)CC2)C1 [compound 217, 2-((1H-pyrrolo[2,3-b]pyrid-5-yl)oxy)-4-(2-((R)-4-(2,6-difluorobenzyl)-2-(2-isopropylphenyl)piperazin-1-yl)-7-azaspiro[3.5]non-7-yl)-5-fluoro-N-((4-((((1r, 4r)-4-hydroxy-4-methylcyclohexyl)methyl)amino)-3-nitrophenyl)sulfonyl)benzamide]
BCL-XL
  IC50: > 500 nM
BCL2
  IC50: < 10 nM

## CC(C)c1ccccc1[C@@H]1CN(Cc2ccc(C(F)(F)F)cc2)CCN1C1CC2(CCN(c3cc(Oc4cnc5[nH]ccc5c4)c(C(=O)NS(=O)(=O)c4ccc(NC[C@H]5CC[C@](C)(O)CC5)c([N+](=O)[O-])c4)cc3F)CC2)C1 [compound 216, 2-((1H-pyrrolo[2,3-b]pyrid-5-yl)oxy)-5-fluoro-N-((4-((((1r, 4r)-4-hydroxy-4-methylcyclohexyl)methyl)amino)-3-nitrophenyl)sulfonyl)-4-(2-((R)-2-(2-isopropylphenyl)-4-(4-(trifluoromethyl)benzyl)piperazin-1-yl)-7-azaspiro[3.5]non-7-yl)benzamide]
BCL-XL
  IC50: > 500 nM
BCL2
  IC50: < 10 nM

## CC(C)c1ccccc1[C@@H]1CN(Cc2ccc(C3CC3)cc2)CCN1C1CC2(CCN(c3cc(Oc4cnc5[nH]ccc5c4)c(C(=O)NS(=O)(=O)c4ccc(NCC5(F)CCOCC5)c([N+](=O)[O-])c4)cc3F)CC2)C1 [compound 195, (R)-2-((1H-pyrrolo[2,3-b]pyrid-5-yl)oxy)-4-(2-(4-(4-cyclopropylbenzyl)-2-(2-isopropylphenyl)piperazin-1-yl)-7-azaspiro[3.5]non-7-yl)-5-fluoro-N-((4-(((4-fluorotetrahydro-2H-pyran-4-yl)methyl)amino)-3-nitrophenyl)sulfonyl)benzamide]
BCL-XL
  IC50: > 500 nM
BCL2
  IC50: < 10 nM

## CC(C)c1ccccc1[C@@H]1CN(Cc2ccc3c(c2)OCO3)CCN1C1CC2(CCN(c3cc(Oc4cnc5[nH]ccc5c4)c(C(=O)NS(=O)(=O)c4ccc(NC[C@H]5CC[C@](C)(O)CC5)c([N+](=O)[O-])c4)cc3F)CC2)C1 [compound 224, 2-((1H-pyrrolo[2,3-b]pyrid-5-yl)oxy)-4-(2-((R)-4-(benzo[d][1,3]dioxocyclopent-5-ylmethyl)-2-(2-isopropylphenyl)piperazin-1-yl)-7-azaspiro[3.5]non-7-yl)-5-fluoro-N-((4-((((1r, 4r)-4-hydroxy-4-methylcyclohexyl)methyl)amino)-3-nitrophenyl)sulfonyl)benzamide]
BCL-XL
  IC50: > 500 nM
BCL2
  IC50: < 10 nM

## CC(C)c1ccccc1[C@@H]1CCCN1C1CC2(CCN(c3cc(N4CCOc5nc6[nH]ccc6cc54)c(C(=O)NS(=O)(=O)c4cc([N+](=O)[O-])c(NCC5(F)CCN(C(C)C)CC5)c5[nH]cnc45)cc3F)CC2)C1 [compound 084, (S)-2-(2,3-dihydropyrrolo[3′,2′:5,6]pyridino[2,3-b][1,4]oxazin-1 (6H)-yl)-5-fluoro-N-((7-(((4-fluoro-1-isopropylpiperid-4-yl)methyl)amino)-6-nitro-1H-benzo[d]imidazol-4-yl)sulfonyl)-4-(2-(2-(2-isopropylphenyl)pyrrolidin-1-yl)-7-azaspiro[3.5]non-7-yl)benzamide]
BCL2
  IC50: < 10 nM

## CC(C)c1ccccc1[C@@H]1CCCN1C1CC2(CCN(c3cc(Oc4cnc5[nH]ccc5c4)c(C(=O)NS(=O)(=O)c4cc([N+](=O)[O-])c(NCC5CCOCC5)c5c4OCO5)cc3F)CC2)C1 [compound 156, (S)-2-((1H-pyrrolo[2,3-b]pyrid-5-yl)oxy)-5-fluoro-4-(2-(2-(2-isopropylphenyl)pyrrolidin-1-yl)-7-azaspiro[3.5]non-7-yl)-N-((6-nitro-7-(((tetrahydro-2H-pyran-4-yl)methyl)amino)benzo[d][1,3]dioxocyclopent-4-yl)sulfonyl)benzamide]
BCL2
  IC50: < 10 nM

## COc1ccc(CN2CCN(C3CC4(CCN(c5cc(Oc6cnc7[nH]ccc7c6)c(C(=O)NS(=O)(=O)c6cc([N+](=O)[O-])c(NCC7(F)CCOCC7)c7ocnc67)cc5F)CC4)C3)[C@H](c3ccccc3C(C)C)C2)cc1 [compound 107, (R)-2-((1H-pyrrolo[2,3-b]pyrid-5-yl)oxy)-5-fluoro-N-((7-(((4-fluorotetrahydro-2H-pyran-4-yl)methyl)amino)-6-nitrobenzo[d]oxazol-4-yl)sulfonyl)-4-(2-(2-(2-isopropylphenyl)-4-(4-methoxybenzyl)piperazin-1-yl)-7-azaspiro[3.5]non-7-yl)benzamide]
BCL2
  IC50: < 10 nM

## COc1ccc(CN2CCN(C3CC4(CCN(c5cc(Oc6cnc7[nH]ccc7c6)c(C(=O)NS(=O)(=O)c6cc([N+](=O)[O-])c(NC[C@H]7CC[C@](C)(O)CC7)c7c6CCO7)cc5F)CC4)C3)[C@H](c3ccccc3C(C)C)C2)cc1 [compound 119, 2-((1H-pyrrolo[2,3-b]pyrid-5-yl)oxy)-5-fluoro-N-((7-((((1r, 4r)-4-hydroxy-4-methylcyclohexyl)methyl)amino)-6-nitro-2,3-dihydrobenzofuran-4-yl)sulfonyl)-4-(2-((R)-2-(2-isopropylphenyl)-4-(4-methoxybenzyl)piperazin-1-yl)-7-azaspiro[3.5]non-7-yl)benzamide]
BCL2
  IC50: < 10 nM

## CC(C)c1ccccc1[C@@H]1CCCN1C1CC2(CCN(c3cc(Oc4cnc5[nH]ccc5c4)c(C(=O)NS(=O)(=O)c4cc([N+](=O)[O-])c(NC[C@H]5CC[C@](C)(O)CC5)c5[nH]cnc45)cc3F)CC2)C1 [compound 014, 2-((1H-pyrrolo[2,3-b]pyrid-5-yl)oxy)-5-fluoro-N-((7-((((1r,4r)-4-hydroxy-4-methylcyclohexyl)methyl)amino)-6-nitro-1H-benzo[d]imidazol-4-yl)sulfonyl)-4-(2-((S)-2-(2-isopropylphenyl)pyrrolidin-1-yl)-7-azaspiro[3.5]non-7-yl)benzamide]
BCL2
  IC50: < 10 nM

## CC(C)c1ccccc1[C@@H]1CCCN1C1CC2(CCN(c3ccc(C(=O)NS(=O)(=O)c4cc([N+](=O)[O-])c(NCC5(F)CCOCC5)c5c4OCO5)c(Oc4cnc5[nH]ccc5c4)c3)CC2)C1 [compound 159, (S)-2-((1H-pyrrolo[2,3-b]pyrid-5-yl)oxy)-N-((7-(((4-fluorotetrahydro-2H-pyran-4-yl)methyl)amino)-6-nitrobenzo[d][1,3]dioxocyclopent-4-yl)sulfonyl)-4-(2-(2-(2-isopropylphenyl)pyrrolidin-1-yl)-7-azaspiro[3.5]non-7-yl)benzamide]
BCL2
  IC50: < 10 nM

## CC(C)c1ccccc1[C@@H]1CCCN1C1CC2(CCN(c3cc(Oc4cnc5[nH]ccc5c4)c(C(=O)NS(=O)(=O)c4cc([N+](=O)[O-])c(NCC5(F)CCOCC5)c5occc45)cc3F)CC2)C1 [compound 102, (S)-2-((1H-pyrrolo[2,3-b]pyrid-5-yl)oxy)-5-fluoro-N-((7-(((4-fluorotetrahydro-2H-pyran-4-yl)methyl)amino)-6-nitrobenzofuran-4-yl)sulfonyl)-4-(2-(2-(2-isopropylphenyl)pyrrolidin-1-yl)-7-azaspiro[3.5]non-7-yl)benzamide]
BCL2
  IC50: < 10 nM

## CC(C)c1ccccc1[C@@H]1CN(Cc2cccnc2)CCN1C1CC2(CCN(c3cc(Oc4cnc5[nH]ccc5c4)c(C(=O)NS(=O)(=O)c4ccc(NC[C@H]5CC[C@](C)(O)CC5)c([N+](=O)[O-])c4)cc3F)CC2)C1 [compound 232, 2-((1H-pyrrolo[2,3-b]pyrid-5-yl)oxy)-5-fluoro-N-((4-((((1r, 4r)-4-hydroxy-4-methylcyclohexyl)methyl)amino)-3-nitrophenyl)sulfonyl)-4-(2-((R)-2-(2-isopropylphenyl)-4-(pyrid-3-ylmethyl)piperazin-1-yl)-7-azaspiro[3.5]non-7-yl)benzamide]
BCL2
  IC50: < 10 nM
